Where “and” joins values, the source holds several entries; their conditions need not be identical. Identical values can stand only once. Like-named read-outs stand apart in the source and are kept apart here.
Experiments:
[1] = Oxygen Radical Absorbance Capacity (ORAC) assay; conditions: Trolox equivalents, ORAC of Trolox = 1.0; AAPH, fluorescein
DPPH reduction assay = conditions: DPPH 100 µM, 1 h in the dark
Description: The final solution was incubated during 1 h in the dark. […] Results are expressed as a percentage of DPPH reduction by subtracting blank absorbance (Absblank) to sample absorbance (Abssample) and corrected by control absorbance, (Abscontrol, DPPH alone, as expressed below: % DPPH reduction = [100 − ((Abssample − Absblank) × 100/Abscontrol)](1)
Briefly, the compounds under assay (150 µL) at the desired concentration (1, 10, 60 and 100 µM) in methanol/water (80/20) were added to a solution of DPPH in methanol/water (80/20) (150 µL, 100 µM), in a clear bottom 96-well plate, and the final solution was incubated 1 h in the dark. Then, DPPH absorbance of blank (methanol/water), control
Optima plate-reader (BMG Labtech, Ortenberg, Germany) in duplicate.
Results are expressed as % of absorbance (Abs) reduction of control after subtracting blank absorbance, as expressed
% DPPH reduction = [100 – (Abssample-Absblank) x 100]/Abscontrol

[2] = test system: primary glial cultures stimulated with LPS; test: Nitrite production reduction (Griess) in LPS-stimulated mixed primary glial cultures; format: cell-based, rat; conditions: Rattus norvegicus; LPS 1 μg/mL, 24 h pre-incubation, 18 h co-incubation
[3] = test system: voltage-dependent Ca^2+ channels (VDCC); test: Voltage dependent calcium channels blockade assay (Fluo-4, 70 mM K+); format: cell-based, human; conditions: compounds at 10 μM, SH-SY5Y, basal = 100% response
Description: Free cytosolic Ca^2+ was measured using the fluorescence Ca^2+ indicator Fluo-4/AM. SH-SY5Y cells were seeded in 96-well black bottom transparent plates at a density of 60,000 cells per well and cultured until they reach confluence. Cells were incubated with the Ca^2+ sensitive dye Fluo-4/AM at 5 µM in Krebs-HEPES buffer (KH) (145 mM NaCl, 4.9 mM KCl, 1.2 mM MgCl2, 2 mM CaCl2, 10 mM HEPES, 11 mM glucose, pH 7.4), and 0.05% pluronic acid, for 1 h at 37 °C in the dark. Then, cells were washed twice with KH solution to remove the excess of probe and compounds in solution were added. Test compounds at 10 µM were incubated 10 min before K^+ 70 mM was applied to trigger cytosolic Ca^2+ increase. Fluorescence was measured in a fluorescence microplate reader (FLUOstar Optima, BMG, Ortenberg, Baden-Wuerttemberg, Germany) at excitation and emission wavelengths 485 and 520 nm, respectively. To normalize Fluo-4 signals, Triton X-100 (5%) and subsequently MnCl2 1 M were applied to the cells to register maximal and minimal fluorescence, respectively. Data were calculated as a percentage of Fluorescence increment with respect to Fmax − Fmin. The percentage of response was calculated considering basal conditions as 100% response.
Voltage dependent Calcium Channel Blockade Assay
Free cytosolic Ca2+ was measured using the fluorescence Ca2+ indicator Fluo-4/AM.
SH-SY5Y cells were seeded in 96-well black bottom transparent plates at a density of 60,000 cells per well until reaching confluence. Cells were incubated with the Ca2+ sensitive dye fluo-4 AM at 5 µM in Krebs-Hepes buffer (KH) (145 mM NaCl, 4.9 mM KCl, 1.2 mM MgCl2, 2 mM CaCl2, 10 mM HEPES, 11 mM glucose, pH 7.4), and 0.05 % pluronic acid, for 1 h at 37 °C in the dark. Then, cells were washed twice with KH solution to remove the excess of probe and compounds in solution were added. Tested compounds at 10 µM were incubated 10 min before K+ 70 mM was applied to evoke the increment of cytosolic Ca2+. The experiments were analyzed at excitation and emission wavelengths of 485 and 520 nm, respectively, and fluorescence was measured in a fluorescence microplate reader (FLUOstar Optima, BMG, Germany). To normalize Fluo-4 signals, Triton X-100 (5 %) and subsequently MnCl2 1 M were applied to cells for registering both maximal and minimal fluorescence, respectively. Data were calculated as % F increment respect to Fmax – Fmin. % of blockade was calculated considering basal conditions as 100 % response.
Then, the donor filter plate was carefully put on the acceptor plate to form a “sandwich”, which was left undisturbed for 4 h at 25 °C. During this time, the compounds diffused from the donor plate through the polar brain lipid membrane (area = 0.28 cm2) into the acceptor plate. After incubation, the donor plate was carefully removed. UV plate reader determined the concentration of compounds and commercial drugs in both acceptor and […]

[4] = Blood-brain barrier permeation assay (PAMPA), porcine brain lipid; format: in vitro ADME; conditions: for PAMPA Prediction: BBB permeability class from Pe; for Prediction of the BBB passive permeability: PAMPA control compounds
[5] = test system: blood-brain barrier (passive diffusion); test: as above; format: in vitro ADME
[6] = test system: neuroblastoma cell line SH-SY5Y; test: Cytotoxicity (neurotoxicity) in SH-SY5Y, MTT; conditions: 24 h
Description: LD50 in SH-SY5Y and primary glial culture cells
(§1) cell line SH-SY5Y and primary glial cultures. Viability was measured as
(§2) MTT reduction in presence of increasing concentrations of derivatives.
(§3) Values are expressed as LD50 calculated from dose-response curves of four
(§4) different concentrations. Data are expressed as mean  SEM of five
different experiments in triplicate.
(§5) SH-SY5Y or primary glial cells were cultured in 96-well plates for 24 h. Then, cells
(§6) were treated with the compounds at 10, 30 and 100 µM in the corresponding culture media
(§7) with 1 % FBS After 24 h, cell viability was assessed by the MTT-reduction assay. Control
(§8) cells were incubated with the same concentration of DMSO (0.1 % final concentration)
Viability assay by MTT-reduction
(§9) SH-SY5Y, primary glial culture cells and rat hippocampal slices viability was
(§10) measured by the MTT assay [11]. This method is based on the cleavage of the tetrazolium
(§11) ring of MTT by active dehydrogenases, generating a formazan precipitate. At the end of
(§12) the neuroprotection or toxicity experiments, an MTT solution was added to each well to
(§13) reach a final concentration of 0.5 mg/mL. After 2 additional hours of incubation, the
(§14) solution was replaced by 100 or 300 µL of DMSO to solubilize the formazan precipitate.
(§15) in control cells was considered as 100 % of cell survival and used to reference all

GSK-3β = GSK-3β (Homo sapiens, UniProt P49841); test: GSK-3β inhibition, Kinase-Glo luminescence assay
GSK-3β, sequence (P49841 whole entry): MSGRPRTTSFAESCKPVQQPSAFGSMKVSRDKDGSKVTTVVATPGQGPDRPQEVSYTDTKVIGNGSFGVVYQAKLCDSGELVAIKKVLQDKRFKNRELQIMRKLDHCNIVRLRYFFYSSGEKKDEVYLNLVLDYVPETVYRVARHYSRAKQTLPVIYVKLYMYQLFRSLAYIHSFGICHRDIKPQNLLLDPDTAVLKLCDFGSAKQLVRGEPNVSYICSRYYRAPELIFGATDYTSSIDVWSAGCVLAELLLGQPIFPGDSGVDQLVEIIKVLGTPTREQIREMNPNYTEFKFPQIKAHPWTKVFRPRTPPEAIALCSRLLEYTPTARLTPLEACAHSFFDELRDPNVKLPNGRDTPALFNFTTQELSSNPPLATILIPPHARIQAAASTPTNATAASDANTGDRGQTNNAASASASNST

primary glial cultures = test: Cytotoxicity (gliotoxicity) in primary glial cultures, MTT; conditions: 24 h
Description: as §1, §2, §3, §4
different experiments in triplicate.
Mixed glial cultures were obtained from cerebral cortex of 2-5-day-old Sprague-Dawley rats. After removal of blood vessels and meninges, the forebrains were dissociated in DMEM/F12 medium. After mechanical dissociation, cells were plated (3x10^5 cells/ml) in DMEM/F12 medium with 20 % fetal bovine serum (FBS) and 1 % penicillin/streptomycin (10,000 units), at 37 °C and in a 5 % CO2-supplemented air atmosphere. After 5 days, medium was substituted by DMEM/F12 medium with 10 %
FBS. Cells were cultured for 7-10 days before treatment.
as §5, §6, §7, §8
Viability assay by MTT-reduction
as §9
measured by the MTT assay [11].

[7] = test system: SH-SY5Y human neuroblastoma cells; test: Neuroprotection against rotenone/oligomycin A (oxidative stress), MTT; conditions: 1 μM, rotenone 30 μM / oligomycin A 10 μM, 24 h
Description: (§16) Cells were pre-incubated with the corresponding compound at 1 μM in neuroblastoma culture medium. After 24 h, the medium was removed and replaced with 1% FBS neuroblastoma culture media containing the corresponding compound at 1 µM and the toxic stimuli, namely a mixture of rotenone and oligomycin A (R/O, 30 μM/10 μM, respectively), okadaic acid (OA) at 20 nM or a high concentration of KCl (70 mM). Cells were co-incubated for further 24 h with the R/O mixture or KCl solution, or 18 h with the OA solution. […] Control cells were incubated with the same amount of dimethyl sulfoxide (DMSO) without any drug. After the co-incubation period, cell viability was assessed by the 3-(4,5-dimethylthiazol-2-yl)-2,5-diphenyltetrazolium bromide (MTT) reduction method [56]; basal condition was considered as 100% survival.
(§17) Neuroprotection in the SH-SY5Y neuroblastoma cell line
(§18) A pre- and co-incubation protocol was followed. Cells were pre-incubated with the
(§19) corresponding compound at 1 M in neuroblastoma culture medium. After 24 h, the
(§20) medium was removed and replaced with 1% FBS neuroblastoma culture media
(§21) containing the corresponding compound at 1 µM and the toxic stimuli, namely a mixture
(§22) of rotenone and oligomycin A (30 M/10 M respectively), okadaic acid at 20 nM or a
(§23) high concentration of potassium chloride (70 mM). Cells were co-incubated for further
(§24) 24 h with the rotenone and oligomycin A or potassium chloride solution, or 18 h with the
(§25) okadaic acid solution. Control cells were incubated with the same amount of DMSO
(§26) and reference compounds in the rotenone-oligomycin A, okadaic acid or high
(§27) concentration of potassium models respectively. After the co-incubation period, cell
(§28) viability was assessed by the MTT-reduction method [11] considering basal conditions
Viability assay by MTT-reduction
as §9, §10, §11, §12, §13, §14, §15
(§29) treatments. The percentage of protection was calculated as follows: the percentage of cell
(§30) survival obtained with the toxic stimuli-treated cells subtracted to 100 was normalized to
(§31) 100 % of cell death. The percentage of protection was obtained by subtracting the
(§32) percentage of cell death in presence of the tested compound to 100 %.

[8] = test system: SH-SY5Y human neuroblastoma cells; test: Neuroprotection against okadaic acid (tau hyperphosphorylation), MTT; conditions: 18 h; for percentage of protection, okadaic acid toxicity: 1 μM, OA 20 nM; for viability at 1 µM: Homo sapiens, SH-SY5Y, read-out: cell viability (percentage survival), okadaic acid toxicity
Description: as §16, §17, §18, §19, §20, §21, §22, §23, §24, §25, §26, §27, §28
Viability assay by MTT-reduction
as §9, §10, §11, §12, §13, §14, §15, §29, §30, §31, §32

[9] = PAMPA, 100 µM, PBS pH 7.4, 4 h at 25 °C, mean ± SEM, read-out: PAMPA Pe
[10] = pH 7.4, PAMPA control compounds, Pe ± SD, read-out: Pe ± SD

Structure (SMILES)	IC50 (DPPH reduction assay)	EC50 [2]	PAMPA Prediction [4]	Papp at 4 h, 100 µM [5, 9]	IC50 (GSK-3β)	Ki (GSK-3β)	Prediction of the BBB passive permeability [4]	Papp at 4 h, 100 µM [5, 10]	ORAC (T. Eq.) [1]	VDCC % Response [3]	SH-SY5Y LD50 [6]	Glial cultures LD50 (primary glial cultures)	percentage of protection, R/O toxicity [7]	percentage of survival, R/O toxicity ([7]; basal = 100%)	percentage of protection, okadaic acid toxicity [8]	viability at 1 µM [8]	fold more potent GSK-3β inhibitor than 4l (GSK-3β; ratio of IC50 values)
CN1C(C(=O)Nc2ccccn2)=C(O)c2ccccc2S1(=O)=O [Piroxicam, reference compound]							CNS (+/-)	33 ± 1 nm/s									
COCCOC(=O)C1=C(C)NC(C)=C(C(=O)OC(C)C)C1c1cccc([N+](=O)[O-])c1 (centres unmarked) [Nimodipine, reference compound]										51.0 ± 2.6%							
Cn1c(=O)c2c(ncn2C)n(C)c1=O [Caffeine, reference compound]							CNS (-)										
Cc1[nH]nc2c1C(c1cccc([N+](=O)[O-])c1)C(C#N)=C(N)N2 (centres unmarked) [4h]	24.7 ± 4.03 µM	3.5 ± 0.29 µM	CNS±	21 ± 10 nm/s	0.82 ± 0.2 µM	0.57 µM			0.73 T. Eq. and 0.73 ± 0.09 T. Eq.	75.5 ± 2.7%	> 100 µM	> 100 µM			34.6%	60.8%	
Cc1[nH]nc2c1C(c1cccs1)C(C#N)=C(N)N2 (centres unmarked) [4j]	20.9 ± 4.23 µM	5.4 ± 0.27 µM	CNS+	88 ± 44 nm/s	1.74 ± 1 µM	1.22 µM			2.93 T. Eq. and 2.93 ± 0.15 T. Eq.	60.6 ± 6.8%	> 100 µM	> 100 µM				64%	5 fold
CC(=O)[C@H]1CC[C@H]2[C@@H]3CCC4=CC(=O)CC[C@]4(C)[C@H]3CC[C@]12C [Progesterone, reference compound]							CNS (+/-)	22 ± 28 nm/s									
O=C1O[C@H]([C@@H](O)CO)C(O)=C1O [Ascorbic ac., Ascorbic acid, reference compound]	61.9 ± 4.96 µM																

Continued, in another order:

IC50 (DPPH reduction assay)	EC50 [2]	PAMPA Prediction [4]	Papp at 4 h, 100 µM [5, 9]	IC50 (GSK-3β)	Ki (GSK-3β)	Prediction of the BBB passive permeability [4]	Papp at 4 h, 100 µM [5, 10]	Structure (SMILES)	ORAC (T. Eq.) [1]	VDCC % Response [3]	SH-SY5Y LD50 [6]	Glial cultures LD50 (primary glial cultures)	percentage of protection, R/O toxicity [7]	percentage of survival, R/O toxicity ([7]; basal = 100%)	percentage of protection, okadaic acid toxicity [8]	viability at 1 µM [8]	fold more potent GSK-3β inhibitor than 4l (GSK-3β; ratio of IC50 values)
22.8 ± 6.68 µM	5.7 ± 0.62 µM	CNS+	48 ± 26 nm/s	2.14 ± 1.1 µM	1.5 µM			Cc1[nH]nc2c1C(c1ccc(F)cc1)C(C#N)=C(N)N2 (centres unmarked) [4b]	1.86 T. Eq. and 1.86 ± 0.08 T. Eq.	48.5 ± 7.6%	> 100 µM	> 100 µM	62.7%	84.3%			
25.2 ± 7.91 µM	5.2 ± 1.89 µM	CNS+	80 ± 15 nm/s					Cc1[nH]nc2c1C(c1ccccc1)C(C#N)=C(N)N2 (centres unmarked) [4a]	0.69 ± 0.04 T. Eq.	72.1 ± 5.8%	> 100 µM	> 100 µM					
17.1 ± 2.18 µM	22.3 ± 3.42 µM	CNS-	7 ± 9 nm/s	4.53 ± 2.1 µM	3.18 µM			Cc1[nH]nc2c1C(c1cccnc1)C(C#N)=C(N)N2 (centres unmarked) [4k]	1.03 ± 0.16 T. Eq.	85.6% and 85.6 ± 5.3%	> 100 µM	> 100 µM			over 50%		
21.6 ± 3.99 µM	10.1 ± 0.72 µM	CNS+	101 ± 54 nm/s	0.83 ± 0.3 µM	0.58 µM			Cc1[nH]nc2c1C(c1ccccc1Br)C(C#N)=C(N)N2 (centres unmarked) [4f]	1.00 ± 0.16 T. Eq.	7.39% and 7.39 ± 2.0%	> 100 µM	> 100 µM			over 50%		
23.2 ± 4.31 µM	6.1 ± 1.84 µM	CNS±	31 ± 10 nm/s	3.09 ± 0.4 µM	2.17 µM			Cc1[nH]nc2c1C(c1ccc([N+](=O)[O-])cc1)C(C#N)=C(N)N2 (centres unmarked) [4i]	0.96 ± 0.05 T. Eq.	73.2 ± 2.9%	> 100 µM	> 100 µM					

— paper PMC7463999, “Antioxidant, Anti-inflammatory and Neuroprotective Profiles of Novel 1,4-Dihydropyridine Derivatives for the Treatment of Alzheimer’s Disease” (Antioxidants, 2020)
